Reference: BigSolDB 2.1

CCOc1ccccc1C(N)=O
solubility (mole fraction)
Settings | 288.15 K | 293.15 K | 298.15 K | 303.15 K | 308.15 K | 313.15 K | 318.15 K | 323.15 K | 328.15 K
in 1,4-dioxane | 0.0116 | 0.0144 | 0.0175 | 0.0221 | 0.0272 | 0.0341 | 0.0427 | 0.0527 | 0.0653
in 2-butanone | 0.0124 | 0.015 | 0.0179 | 0.0218 | 0.0268 | 0.0335 | 0.0413 | 0.0501 | 0.0609
in DMF | 0.0485 | 0.0566 | 0.0653 | 0.0754 | 0.0875 | 0.101 | 0.117 | 0.133 | 0.151
in acetone | 0.0124 | 0.0153 | 0.0184 | 0.0226 | 0.0277 | 0.0344 | 0.0424 | 0.0507 | 0.0611
in ethyl formate | 0.00842 | 0.0103 | 0.0122 | 0.0151 | 0.0188 | 0.0238 | 0.0293 | 0.0354 | 0.0429
in isopropanol | 0.00616 | 0.00748 | 0.00916 | 0.0122 | 0.0157 | 0.0205 | 0.0265 | 0.0339 | 0.0423
in methyl acetate | 0.00747 | 0.00924 | 0.0114 | 0.0142 | 0.0182 | 0.023 | 0.0285 | 0.0349 | 0.0428
in n-butanol | 0.00781 | 0.00989 | 0.0122 | 0.0158 | 0.0199 | 0.0251 | 0.0322 | 0.0402 | 0.0498
in n-butyl acetate | 0.00505 | 0.00603 | 0.00705 | 0.0089 | 0.011 | 0.0134 | 0.0165 | 0.0201 | 0.0245
in n-pentanol | 0.00858 | 0.0106 | 0.0131 | 0.0165 | 0.0207 | 0.026 | 0.0329 | 0.0406 | 0.0504
in n-propyl acetate | 0.00566 | 0.0069 | 0.0082 | 0.0101 | 0.0122 | 0.015 | 0.0185 | 0.0227 | 0.0271
in sec-butanol | 0.00735 | 0.00924 | 0.0117 | 0.0153 | 0.0198 | 0.0256 | 0.0326 | 0.0411 | 0.0518
